Experimental data: PMC10669220, “In Vitro α-Glucosidase and α-Amylase Inhibition, Cytotoxicity and Free Radical Scavenging Profiling of the 6-Halogeno and Mixed 6,8-Dihalogenated 2-Aryl-4-methyl-1,2-dihydroquinazoline 3-Oxides” (Antioxidants, 2023)
Values joined by “and” are separate entries in the source; they are usually repeats but may differ in a detail not shown here. Equal entries are not always repeated.

Columns and labels:
[1] = molecular target: T1, α-Glucosidase type 1 from baker's yeast (Saccharomyces cerevisiae, UniProt P53341); assay: biochemical; conditions: IC50 α-Glucosidase, mean ± SD, triplicate; tested at 1, 5, 10, 25, 50 µM
T1 construct: purchased Sigma Aldrich (Pty) Ltd. G5003
T1 sequence (P53341 whole entry): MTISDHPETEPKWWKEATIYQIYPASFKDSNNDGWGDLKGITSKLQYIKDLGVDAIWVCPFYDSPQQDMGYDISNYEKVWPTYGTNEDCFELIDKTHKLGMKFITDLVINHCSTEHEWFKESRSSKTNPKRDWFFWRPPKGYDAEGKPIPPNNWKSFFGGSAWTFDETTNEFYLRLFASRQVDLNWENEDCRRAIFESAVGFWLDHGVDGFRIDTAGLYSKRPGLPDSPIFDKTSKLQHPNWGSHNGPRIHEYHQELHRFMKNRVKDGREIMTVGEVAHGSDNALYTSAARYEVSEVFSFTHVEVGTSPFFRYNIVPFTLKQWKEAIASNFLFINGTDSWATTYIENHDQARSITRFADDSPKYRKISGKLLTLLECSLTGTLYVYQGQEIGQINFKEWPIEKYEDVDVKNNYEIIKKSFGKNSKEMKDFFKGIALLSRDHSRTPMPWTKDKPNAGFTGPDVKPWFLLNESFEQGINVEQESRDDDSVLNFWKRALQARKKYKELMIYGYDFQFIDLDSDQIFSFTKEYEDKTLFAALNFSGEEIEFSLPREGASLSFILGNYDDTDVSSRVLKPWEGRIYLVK
Description: The assay was conducted in triplicate following a method described in our previous study. […] After pre-incubation, 17 µL of 2 mM PNP-G was added. The absorbances were recorded in a 96-well microplate at 400 nm using an Elisa plate reader (Varioskan Flash, ThermoFischer Scientific, Vantaa, Finland). The average values obtained from the readings were used to determine the IC50 and standard deviation values using a GraphPad Prism software (Version 8, GraphPad Software Inc., San Diego, CA, USA). The average values obtained from the absorbance readings were used to determine the IC50 and standard deviation values in GraphPad prism from nonlinear regression dose–response curves.

[2] = system: lung cancer (A549) cell line; assay: MTT cytotoxicity assay, A549; conditions: for Cell viability percentage, A549: Table S3; for IC50: Homo sapiens, A549, read-out: IC50 A549
Description: Cells were cultured in sterile Dulbecco’s Minimal Essential Medium (DMEM, Gibco) supplemented with 10% fetal bovine serum (FBS) and 1% penicillin-streptomycin solution. […] Cell counting was carried out using a handheld automated cell counter (Scapter 3.0™, Merck, Burlington, MA, USA) and seeded (1 × 10^4 cells/well) into a 96-well plate. After 24 h, the cells were treated with different concentrations (1, 5, 10, 25 and 50 µM) of the test compounds and reference standards prepared in DMEM. The MTT solution (20 μL) prepared in PBS (5 mg/mL) was added to all the wells, and the plates were incubated for 4 h, followed by 1 h incubation with 100 µL of dimethyl sulfoxide (DMSO) to dissolve the formazan crystals. Untreated cells and 5% DMSO were included in the experiment as negative controls. All experiments were performed in triplicate. The plates were read at 570 nm at a reference wavelength of 630 nm using an ELISA plate reader (Varioskan Flash, ThermoFisher Scientific, Vantaa, Finland). The percentage of cell viability was calculated using the following formula, Cell viability %=At/Ab×100 where At represents the absorbance value of test compound and Ab the absorbance value of the blank. […] The data were expressed as means ± SD.

[3] = molecular target: superoxide dismutase (SOD); assay: Superoxide dismutase (SOD) inhibitory assay (SOD assay kit-WST); format: biochemical; conditions: duplicate; 1-50 µM; 25 °C, 30 min; read-out: IC50 SOD inhibition
Description: The antioxidant activity of the compounds 3a, 3c, 3f, 3i, 3l, 3n and 3p against superoxide radicals was assessed via enzymatic assay in vitro using the SOD assay kit-WST according to the manufacturer’s instructions (Sigma-Aldrich®). The reaction mixtures in the SOD kit were combined with 20 μL of working solution of the samples in a 96-well plate. Plates were gently shaken and then incubated at 25 °C for 30 min. The reference positive control, diphenyleneiodonium (DPI), and the compounds were tested at 01, 5, 10, 25 and 50 µM in duplicates. The inhibition activity of SOD on the reaction of […] generated the superoxide with a tetrazolium salt, which was then determined by measuring the absorbance of the mixtures at a wavelength of 450 nm using an Elisa plate reader (Varioskan Flash, ThermoFisher Scientific, Vantaa, Finland). The SOD activity values obtained used to calculate the percentage of inhibition. % SOD activity=ODx− ODy/ODx ×100% where ODx is the absorbance of the blank (untreated SOD) and ODy is the absorbance of the sample (treated SOD). All tests were performed in duplicate.

[4] = system: NO generated from nitric oxide synthase (NOS); assay: Inhibitory activity against NO generated from NOS (EnzyChrom kit); format: biochemical; conditions: mean ± SD, 1-50 µM
Description: A nitric oxide synthase (NOS) assay was performed following the procedure recommended by the manufacturer as outlined in the screening kit (Catalogue No. EINO-100; EnzyChrom). Various concentrations (1, 5, 10, 25 and 50 µM) of the compounds 3a, 3c, 3f, 3i, 3l, 3n and 3p and the reference standard, ascorbic acid, were prepared. The enzyme solution (12.5 U/mL NOS, 10 µL), assay buffer (25 µL) and test samples (5 µL) were incubated at room temperature for 15 min. After pre-incubation, 10 µL of reaction mix was added and incubated at 37 °C for 60 min. A 200 µL quantity of NO detection reagent was added, the detection reaction was run at 37 °C for 60 min, and absorbance was determined at a wavelength of 540 nm using an Elisa plate reader (Varioskan Flash, ThermoFisher Scientific, Vantaa, Finland). The average of three readings was used to calculate the NOS percentage inhibition using the following formula: % Inhibition=1−ΔOD Test Compd/ΔOD No Inhibitor ×100%
The IC50 values and standard deviation values were determined from nonlinear regression dose–response curve and compared with the results in GraphPad prism.

[5] = DPPH radical scavenging assay; conditions: mean ± SD; 45 min in the dark; 512 nm
Description: The DPPH radical scavenging assay was conducted following the procedure described in our previous study. The test compounds and ascorbic acid at various concentrations (ranging from 0 µM to 50 µM) in DMSO were mixed with a solution of DPPH (0.20 mM) in methanol and incubated in the dark for 45 min. Five absorbance readings were recorded at 512 nm using an Elisa plate reader (Varioskan Flash, ThermoFisher Scientific, Vantaa, Finland). The experiment was carried out in triplicate, and averaged values from the absorbance readings were used to determine the IC50 and standard deviation values in GraphPad prism from nonlinear regression dose–response curves.

human α-amylase = molecular target: T2, human α-amylase (Homo sapiens, UniProt P04746); assay: α-amylase inhibitor screening kit assay; format: biochemical; conditions: mean ± SD, triplicate; tested at 1, 5, 10, 25, 50 µM
T2 construct: purchased Abcam ab283391
T2 sequence (P04746 16-511): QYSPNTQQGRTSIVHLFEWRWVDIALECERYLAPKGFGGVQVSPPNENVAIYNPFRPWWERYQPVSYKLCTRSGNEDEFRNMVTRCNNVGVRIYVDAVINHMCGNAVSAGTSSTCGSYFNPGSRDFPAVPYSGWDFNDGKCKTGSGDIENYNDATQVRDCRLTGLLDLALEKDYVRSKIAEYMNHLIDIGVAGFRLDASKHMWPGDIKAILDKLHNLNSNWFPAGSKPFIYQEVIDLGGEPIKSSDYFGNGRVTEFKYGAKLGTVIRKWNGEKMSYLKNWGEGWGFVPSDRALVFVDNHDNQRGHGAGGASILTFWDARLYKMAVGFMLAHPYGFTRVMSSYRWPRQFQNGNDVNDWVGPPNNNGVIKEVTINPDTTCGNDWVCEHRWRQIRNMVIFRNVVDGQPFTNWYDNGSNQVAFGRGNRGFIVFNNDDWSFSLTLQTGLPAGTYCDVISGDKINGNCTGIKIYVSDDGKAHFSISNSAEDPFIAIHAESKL
Description: The α-amylase assay was performed in triplicate, using a 96-well plate following the procedure recommended by the manufacturer as outlined in the α-amylase inhibitor Screening Kit (Catalogue No. ab283391; Abcam). […] The average values obtained from the absorbance readings were used to determine the IC50 and standard deviation values in GraphPad prism from nonlinear regression dose–response curves.

[6] = system: breast cancer (MCF-7) cell line; assay: MTT cytotoxicity assay, MCF-7; conditions: for Cell viability percentage, MCF-7: Table S2; for IC50: Homo sapiens, MCF7, read-out: IC50 MCF-7
[7] = MTT cytotoxicity assay, HEK293-T; conditions: human, HEK293-T cells
[8] = system: human embryonic kidney (HEK293-T) cell line; assay: MTT cytotoxicity assay, HEK293-T; conditions: Homo sapiens, HEK-293T, read-out: IC50 Hek293-T
[9] = NO free radical scavenging assay (sodium nitroprusside/Griess); conditions: mean ± SD; sodium nitroprusside, Griess reagent, 550 nm
Description: The assay was conducted following the method described in our previous study. A mixture of 10 mM sodium nitroprusside (20 µL), phosphate buffer (5 µL) and the test compound (5 µL) were incubated at 25 °C in a 96-well plate for 2.5 h. After incubation, 20 µL of Griess reagent (1.00 g of sulfanilic acid + 0.10 g naphthylethylene diamine dihydrochloride) was added to the previous mixture and allowed to stand for 30 min. […] Each experiment was performed in triplicate, and the average was taken. The average obtained from the absorbance readings was used to calculate the IC50 values in GraphPad prism from nonlinear regression dose–response curves.

SMILES | IC50 [1] | Cell viability percentage, A549 ([2]; Conc. 1 (µM per method)) | Cell viability percentage, A549 ([2]; Conc. 5 (µM per method)) | Cell viability percentage, A549 ([2]; Conc. 10 (µM per method)) | Cell viability percentage, A549 ([2]; Conc. 25 (µM per method)) | Cell viability percentage, A549 ([2]; Conc. 50 (µM per method)) | IC50 [2] | IC50 [3] | IC50 [4] | melting point | IC50 [5] | IC50 (human α-amylase) | Cell viability percentage, MCF-7 ([6]; Conc. 1 (µM per method)) | Cell viability percentage, MCF-7 ([6]; Conc. 5 (µM per method)) | Cell viability percentage, MCF-7 ([6]; Conc. 10 (µM per method)) | Cell viability percentage, MCF-7 ([6]; Conc. 25 (µM per method)) | Cell viability percentage, MCF-7 ([6]; Conc. 50 (µM per method)) | IC50 [6] | viability at 1 µM [7] | viability at 5 µM [7] | other results
CC1=[N+]([O-])C(c2ccccc2)Nc2ccc(Br)cc21 (stereo not shown) [Compound 3a] | 1080 ± 20 nM | 66,8354% | 57,3068% | 54,0443% | 41,1182% | 30,5771% | 15.84 ± 0.07 µM | 15 ± 10 µM | 5240 ± 2 nM | 158 to 160 °C | 4.74 ± 0.027 µM | 5.33 ± 0.01 µM | 26,2641% | 26,1144% | 23,187% | 22,3387% | 19,6607% | 10.83 ± 0.09 µM | 69.4% | 63.4% | viability at 10 µM [7]: 57.8%; viability at 25 µM [7]: 55.1%; viability at 50 µM [7]: 19%; IC50 [8]: 40.18 ± 0.02 µM; IC50 [9]: 27.34 ± 0.04 µM
CC1=[N+]([O-])C(c2ccc(Cl)cc2)Nc2ccc(Br)cc21 (stereo not shown) [Compound 3c] | 1040 nM and 920 nM | 73,4391% | 66,5879% | 54,3481% | 41,782% | 29,5534% | 15.26 ± 0.09 µM | 4.6 ± 0.14 µM | 1100 ± 3 nM | 171 to 173 °C | 33.52 ± 0.025 µM | 30.48 ± 0.02 µM | 46,7898% | 44,7938% | 42,5981% | 41,6999% | 37,2256% | 25.48 ± 0.08 µM | 64.7% | 62.9% | viability at 10 µM [7]: 50.3%; viability at 25 µM [7]: 34.2%; viability at 50 µM [7]: 23.5%; IC50 [8]: 27.54 ± 0.05 µM; IC50 [9]: 7.45 ± 0.002 µM
CC1=[N+]([O-])C(c2ccc(F)cc2)Nc2ccc(I)cc21 (stereo not shown) [Compound 3f] | 9270 ± 20 nM | 82,3715% | 71,9204% | 61,143% | 44,212% | 32,7708% | 13.71 ± 0.11 µM | 11.59 ± 0.08 µM | 4700 ± 4 nM | 180 to 182 °C | 23.66 ± 0.009 µM | 0.64 ± 0.01 µM | 69,8879% | 62,4071% | 44,9558% | 32,649% | 23,6814% | 19.01 ± 0.04 µM | 72% | 55.2% | viability at 10 µM [7]: 47.8%; viability at 25 µM [7]: 36.7%; viability at 50 µM [7]: 14.7%; IC50 [8]: 22.32 ± 0.08 µM; IC50 [9]: 6.74 ± 0.002 µM
COc1ccc(C2Nc3c(I)cc(Br)cc3C(C)=[N+]2[O-])cc1 (stereo not shown) [Compound 3l] | 920 nM and 1040 nM | 89,6276% | 82,1465% | 60,333% | 45,5732% | 45,4944% | 16.34 ± 0.06 µM | 5.6 ± 0.17 µM | 1060 ± 5 nM | 153 to 155 °C | 27.7 ± 0.04 µM | 54.18 ± 0.01 µM | 66,3742% | 55,5856% | 51,5919% | 35,1896% | 17,5102% | 18.12 ± 0.1 µM | 80.4% | 69.4% | viability at 10 µM [7]: 59.2%; viability at 25 µM [7]: 25.5%; viability at 50 µM [7]: 19.7%; IC50 [8]: 32.39 ± 0.17 µM; IC50 [9]: 67.81 ± 0.004 µM
